Reference: paper PMC4730229, “Benzobisthiazoles Represent a Novel Scaffold for Kinase Inhibitors of CLK Family Members” (Biochemistry, 2015)

Assays:
Type in all cases: biochemical
firefly luciferase = experiment: Luciferase inhibition assay (Kinase-Glo, no kinase); conditions: compound at 10 μM
Method: For analysis of luciferase inhibition, 10 μL of luciferase reagent (Kinase-Glo, Promega) was added to 10 μL of a mixture consisting of 1 μM ATP and 5 μM S6K and 10 μM compound (potential kinase inhibitor) in buffer A in the absence of kinase and incubated for 10 min at room temperature in a white well plate before the luminescence was read. The percentage of inhibition is equal to (luminescence in the assay without compound – luminescence in the assay with compound)/(luminescence in the assay without compound) × 100.

[1] = molecular target: T1, GST-CLK2cd (CLK2 catalytic domain) (Homo sapiens, UniProt P49760); experiment: High-throughput screen, Kinase-Glo in vitro kinase assay; conditions: compound at 10 μM; read-out: percentage of inhibition on CLK2 (primary screen)
T1 construct: cDNA encoding the CLK2 catalytic domain (CLK2cd, amino acids 140–496); made in house; host or cells: Escherichia coli BL21(DE3)-R3-lambda-PPase
T1 sequence (P49760 140-496): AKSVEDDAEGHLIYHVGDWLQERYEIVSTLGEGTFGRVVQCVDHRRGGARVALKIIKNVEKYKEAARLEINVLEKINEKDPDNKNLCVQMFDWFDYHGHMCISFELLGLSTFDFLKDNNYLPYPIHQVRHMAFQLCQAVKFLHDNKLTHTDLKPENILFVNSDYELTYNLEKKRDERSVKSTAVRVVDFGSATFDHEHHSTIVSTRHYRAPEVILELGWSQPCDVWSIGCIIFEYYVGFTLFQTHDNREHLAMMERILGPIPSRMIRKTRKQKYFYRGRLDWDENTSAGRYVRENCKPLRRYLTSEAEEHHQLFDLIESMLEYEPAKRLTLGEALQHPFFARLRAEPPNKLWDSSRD
Method: A small molecule inhibitor library consisting of 1600 compounds was obtained from LIFE Chemicals (Kiev, Ukraine). These compounds are part of the CUTE kinase collection that was predicted by in silico profiling against a panel of targets and includes potent kinase inhibitor compounds.[16] Compounds were dissolved as 10 mM stocks in DMSO and stored at room temperature, in the presence of 5% humidity and 5% oxygen in the dark in a Roylan Storage Pod system. Compounds were dispensed into white 384-well plates using the Labcyte Echo520 instrument at a final concentration of 10 μM. Next, 5 μL of 144.92 nM purified GST-CLK2cd in kinase assay buffer A was added to the compounds, incubated for 10 min at room temperature prior to addition of 5 μL of a 2 μM ATP/10 μM S6K peptide mixture, and incubated again for 60 min at room temperature. Subsequently, 10 μL of Kinase-Glo was added to the wells, and the plates were analyzed after 10 min on the Envision II multilabel plate reader (PerkinElmer). […] The percentage of inhibition is equal to 100 – [(total ATP before assay – remaining ATP in assay with compound)/(total ATP before assay – remaining ATP in assay with DMSO) × 100].

CLK2 = CLK2 (Homo sapiens, UniProt P49760); experiment: Kinase inhibition assay, IC50; set-up: cDNA encoding the CLK2 catalytic domain (CLK2cd, amino acids 140–496); made in house; host or cells: Escherichia coli BL21(DE3)-R3-lambda-PPase; conditions: relative to 3A5
CLK2, sequence (P49760 140-496): as above

CLK3 = molecular target: T2, CLK3 (Homo sapiens, UniProt P49761); experiment: Kinase inhibition assay, IC50
T2 construct: The catalytic domains of CLK1, CLK2, CLK3, CLK2K193A, and CLK2K193A/D290A were tagged with GST; GST (N); made in house
T2 sequence (P49761 156-472 limits assumed): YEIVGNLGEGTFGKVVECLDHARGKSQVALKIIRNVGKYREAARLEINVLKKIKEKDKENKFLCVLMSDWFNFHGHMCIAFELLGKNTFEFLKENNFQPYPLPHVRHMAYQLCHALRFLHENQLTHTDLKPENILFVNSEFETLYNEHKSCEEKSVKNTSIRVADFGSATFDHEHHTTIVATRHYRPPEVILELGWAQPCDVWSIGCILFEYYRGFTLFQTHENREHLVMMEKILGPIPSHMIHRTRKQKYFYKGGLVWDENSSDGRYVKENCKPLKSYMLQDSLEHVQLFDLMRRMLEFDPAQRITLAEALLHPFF

% inhibition of luciferase (firefly luciferase) [%]	inhibition at 10 µM [1] [%]	decrease of inhibition against CLK2 compared to 3A5 (CLK2)	IC50 (CLK3) [µM]	Structure (SMILES)
8.1 ± 1.8	50			O=C(Nc1nc2c(s1)CCCC2)C1CC1 [1C11]
17.5 ± 4.5	51			CC(=O)Nc1ccc(-c2nc3c(Cl)cccc3[nH]2)cc1 [2A4]
26 ± 1.1	65			O=C(Nc1cccc(-c2nc3ccccc3[nH]2)c1)c1ccc2ncsc2c1 [3B5]
20.4 ± 1.6	56			O=C(NCCO)c1ccc(Nc2nc(-c3ccccc3)c3cc(Cl)ccc3n2)cc1 [4B9]
47.8 ± 2.1	50			Cc1nc2c(ccc3nc(NC(=O)c4cccs4)sc32)s1 [4G9]
26.4 ± 2.4	58			Fc1ccc(-c2csc3ncnc(NCc4ccccc4)c23)cc1 [5E11]
23.6 ± 1.5	55	2–3 fold		CSc1nc2ccc3nc(NC(=O)c4ccc(S(=O)(=O)N5CCOCC5)cc4)sc3c2s1 [5F4]
19.6 ± 3.6	53			COc1cc(C(=O)Nc2nc3ccc(S(=O)(=O)N4CCCCC4)cc3s2)cc(OC)c1OC [7C4]
18.8 ± 1.6	53			CC(=O)Nc1nc2cc3c(cc2s1)OCO3 [8A6]
0 ± 6.2	52			COCCNC(=O)c1cccc(Nc2nc(-c3ccccc3)c3cc(Cl)ccc3n2)c1 [8B5]
5.6 ± 4.0	58			O=C(O)c1ccc(C(=O)Nc2ccccc2-c2nc3ccccc3[nH]2)cc1 [9C6]
0 ± 2.4	51			COc1ccc(Cc2cnc(NC(=O)c3cc(C)oc3C)s2)cc1 [13D3]
21.9 ± 0.2	53			COc1ccccc1C(=O)Nc1nc2ncccc2cc1-c1ccccc1 [17F6]
17.5 ± 2.2	58			CC1(C)Cc2cccc(OCC(=O)Nc3cccc(-c4cc[nH]n4)c3)c2O1 [18B6]
21.1 ± 2.2	56			O=C(Nc1cccc(-c2nc3ccccc3[nH]2)c1)c1ccc2nsnc2c1 [18H3]
			> 3	O=C1N=C(NCc2cccs2)S/C1=C\c1ccc2ncccc2c1 [NR9, (5Z)-5-(quinolin-6-ylmethylidene)-2-[(thiophen-2-ylmethyl)amino]-1,3-thiazol-4(5H)-one]
13.4 ± 1.8	63			CCN1/C(=C/C(C)=O)Sc2ccc(OC)cc21 [TG003, reference compound]
